Experimental data reported in patent US20130230486A1, “COMPOSITIONS AND METHODS TO INDUCE TARGETED APOPTOSIS” (priority 2010, published 2013).

What was measured:
[1] = test system: Fas phospho-Y291; experiment: Tyrosine phosphorylation of Fas at tyrosine 291 by Western blot in MRC5 lung fibroblasts; type: cell-based, human; settings: pervanadate 150 μM, time dependent
Procedure: PTPN13 has been shown in astrocytoma cells to dephosphorylate Fas at tyrosine 291. Little is known about the regulatory function of tyrosine phosphorylation of Fas. In another exemplary embodiment, to assess the effect of TNF-α and IFN-γ sensitization on the levels of Fas tyrosine phosphorylation, MRC5 lung fibroblasts were treated with TNF-α and IFN-γ for increasing amounts of time. Because TNF-α is known to increase tyrosine phosphorylation of many proteins, such as MAP kinases and AKT, within minutes following stimulation, the kinetics of TNF-α and IFN-γ induced tyrosine phosphorylation of Fas were assessed. MRC5 lung fibroblasts were treated with TNF-α (10 ng/ml) and IFN-γ (50 U/ml) for up to 48 hours. The cells were lysed and analyzed by western blot for phosphorylated Fas, using a phospho-specific antibody for Fas phosho-Y291. TNF-α and IFN-γ increased tyrosine phosphorylation of Fas at tyrosine residue 291 beginning at 18 hours. […] The pervanadate treated MRC5 cells were lysed and analyzed the tyrosine phosphorylation of Fas by western blotting. […] We then detected phosphorylated Fas by Western blot, using a phospho-specific antibody for Fas tyrosine residue 291. […]
FIG. 5: Inhibition of tyrosine phosphatase activity sensitizes lung fibroblasts to Fas-induced apoptosis. […] Caspase-8 activation was measured by a fluorescence based assay. […]

[2] = test system: caspase-8; experiment: Caspase-8 activation (Fas-induced apoptosis) in lung fibroblasts; type: cell-based, human; settings: MRC5
Procedure: To assess the effects of these cytokines on PTPN13 expression, non-diseased normal human lung fibroblasts (NHLF), fibrotic human lung fibroblasts (FHLF) and a fetal lung fibroblast cell line, MRC5 cells, were treated with TNF-α (10/ng/ml), IFN-γ (50 U/ml) or with both cytokines for 6 hours. PTPN13 expression was measured by quantitative PCR (FIG. 2A). The primary lung fibroblasts from normal and fibrotic lung had equivalent levels of PTPN13 expression to the MRC5 lung fibroblast cell line. […] Treatment with TNF-α alone caused a 40% decrease in PTPN13 expression. Combined exposure to TNF-α and IFN-γ decreased PTPN13 mRNA expression by 80%. Protein lysates from normal, fibrotic and MRC5 fibroblasts treated for 36 hours with TNF-α (10/ng/ml), IFN-γ (50 U/ml) or with both cytokines were then analyzed for PTPN13 expression. […]
In one exemplary method, to assess whether PTPN13 expression prevents Fas-induced apoptosis, PTPN13 expression was knocked-down using siRNA. […] Apoptosis was assayed by quantifying activation of caspase-3 and caspase-8 (FIG. 3C).
In death-receptor mediated apoptosis, formation of the DISC (Death-Inducing Signaling Complex) is essential for the initiation of apoptosis. […] The cells were lysed, immunoprecipitated with anti-Fas antibody, and co-immunoprecipitated FADD and caspase-8 were detected by immunoblotting. […]

**Q.** For pervanadate, which “tyrosine phosphorylation of Fas (Y291)” value [1] is on record?
**A.** The value was “increased”.

**Q.** And the “caspase-8 activity over unstimulated cells” value ([2]; 150 μM pervanadate 2 hour pre-treatment, then Fas-activating antibody 250 ng/ml)?
**A.** Its value is 6 fold.

**Q.** And the “caspase-8 activity above untreated cells” value ([2]; 150 μM pervanadate alone)?
**A.** Its value is 2 fold.
